Data published in paper PMC3314694, “Small Molecule Antagonists of the Wnt/Beta-Catenin Signaling Pathway Target Breast Tumor-Initiating Cells in a Her2/Neu Mouse Model of Breast Cancer” (PLoS ONE, 2012).

Tests used:
[1] = system: tumorsphere-derived cells; assay: Sphere forming assay, tumorsphere-derived cells; assay type: cell-based, mouse
Text: (§1) To determine whether Wnt/β-catenin signaling was required for BTIC and mammary epithelial stem and progenitor cell function in vitro, we examined the effect of agonists and antagonists of Wnt/β-catenin signaling on sphere formation, which when performed under appropriate conditions is thought to be an attribute of stem/progenitor cells and TICs, [38], [39], [40]. We seeded dispersed cells dissociated from mammospheres and tumorspheres into media containing either Dkk1 or Wnt3a at concentrations previously shown to be sufficient to inhibit or activate the Wnt/β-catenin signaling pathway, respectively, [42]. Dkk1 is a secreted protein inhibitor [43], and Wnt3A is a stimulatory ligand of Wnt/β-catenin signaling. […] We used the small molecule BIO to inhibit GSKβ, a negative regulator of Wnt/β-catenin signaling.
(§2) We similarly tested pharmacological agents, which target Wnt/β-catenin signaling (PKF118–310, PKF115–584, CGP049090), for their affect on sphere formation. These inhibitors are specific antagonists of Wnt/β-catenin signaling that interrupt the […] step in pathway activation, namely the interaction between β-catenin and Tcf/Lef transcription factors. We seeded freshly isolated primary tumor cells and primary mammary epithelial cells, as well as mammosphere- and tumorsphere-derived cells into medium containing various concentrations of the inhibitors.
(§3) The #3 and #4 mammary glands from virgin female FVB/N mice (6–8 weeks old) and mammary tumors were isolated as described previously, [56]. Mammospheres and tumorspheres were established from the bulk primary mammary epithelial and tumor cell population respectively as described previously. Serial passage of the mammospheres and tumorspheres was accomplished by mechanically dissociated the cells from spheres using titruation and reseeding the dispersed cells into fresh medium. Passage of the spheres was limited to 3–5 serial passages before the cells were harvested and RNA prepared. To induce a differentiation program in mammospheres in vitro, intact mammospheres were collected by centrifugation, the spheres were dissociated and the dispersed cells were plated at a density of 150,000 cells/ml on rat-tail collagen (Roche, Basel, Switzerland) coated 60 mm Petri dishes, [59]. The cells were incubated for a week before they were harvested and used to prepare cellular RNA for analyses.
(§4) Sphere and colony forming assays were completed as previously described. Dkk1 and Wnt3A were obtained from RnDSystems (Minneapolis, Minnesota). PKF118–310, PKF115–584 and CGP049090 were a gift from Novartis (Basel, Switzerland).
(§5) The 50% inhibitory concentration (IC50) of compounds was calculated using GraphPad Prism5 software. X-axis values were X = Log(X) transformed and then fit with a dose-response curve. The DMSO vehicle control was included to aid IC50 calculation and was assigned a 1 nM concentration of the tested compound.

[2] = system: mammosphere-derived cells; assay: Sphere forming assay, mammosphere-derived cells; assay type: cell-based, mouse
Text: as §1, §2, §3, §4, §5

[3] = system: primary tumor cells (BTIC); assay: Ex vivo treatment of primary tumor cells and transplant into syngeneic mice; assay type: in vivo, mouse
Experimental: We incubated freshly isolated primary tumor cells under sphere forming conditions in presence of vehicle (DMSO) or PKF118–310 (1 µM or 2.5 µM concentrations). After 4 days the spheres were collected, dissociated and equal numbers (5,000) of viable PKF118–310- and vehicle-treated cells were injected sub-cutaneously into the syngeneic mice. Upon endpoint, when the tumor in any individual mouse reached 10% of its weight (∼6 weeks) all the animals were sacrificed and the tumors harvested.
as §4

[4] = system: pre-established breast tumors; assay: In vivo compound administration to tumor-bearing mice; set-up: species or system mouse
Text: To determine whether PKF118–310 affected the growth of pre-established breast tumors and reduced BTIC frequency in vivo, we transplanted primary breast tumor cells into syngeneic mice and treated these hosts with PKF118–310 after the tumors had reached a volume of ∼1 cm^3. […] After treatment ceased the tumors in mice administered the vehicle were ∼3 fold larger than those in PKF118–310-treated mice (Fig. 4B, *p<0.05).
To uncover potential mechanisms whereby the compound halted tumor growth, we prepared sections from the tumors of both cohorts and stained them with Hematoxylin and Eosin (H&E). […] In some cases the cell-free areas contained material, characteristic of milk protein secretions. […] We also examined whether inhibition of tumor growth was accomplished by a reduction in cell proliferation and/or induction of apoptosis. We stained tumor sections for markers of proliferation (Ki67) and apoptosis (cleaved caspase-3 and TUNEL). We observed a significant decrease in the frequency of Ki67 positive tumor cell nuclei in the PKF118–310 treated tumor-bearing mice compared to their vehicle-treated counterparts (Fig. 4D&E). […] Tumors from PKF118–310 treated mice comprised approximately 3–4-fold fewer Ki67-positive cells than tumors from vehicle-treated mice. We similarly simultaneously stained the tumor sections with antibodies to a luminal lineage marker (CK8) and with those to each of two myoepithelial lineage markers (CK14 and alpha-smooth muscle actin [alpha-SMA). The vast majority of the cells in sections prepared from tumors of the vehicle-treated mice expressed only the luminal lineage marker in keeping with previous findings (data not shown). Tumor sections prepared from tumors of the mice administered PKF118–310 also only expressed the luminal lineage marker.
To learn whether administration of PKF118–310 to tumor-bearing mice inhibited Wnt/β-catenin signaling in tumors, we measured the abundance of Wnt/β-catenin target gene transcripts in the tumor cells.
Freshly isolated primary tumor (100,000) cells were suspended in 50% Matrigel (BD, Franklin Lakes, New Jersey), 45% phosphate buffered saline pH7.4 (PBS) and 5% fetal bovine serum (FBS) [Invitrogen, Carlsbad, California], and the cells were injected subcutaneously between the shoulders into syngeneic 6–8 week-old female mice (FVB/N strain). Mice were monitored by palpation weekly for the occurrence of tumors. When tumors reached roughly 1 cm^3, the mice were administered either the vehicle (0.1% DMSO) or PKF118–310 (0.85 mg/kg) dissolved in 0.1% DMSO by intra-tumoral injection for 5 consecutive days followed by a 2-day rest period before compound administration was repeated once. Tumor volume was measured twice weekly. At the end of the 12-day treatment cycle the mice were sacrificed and their tumors harvested for analysis. […] Viable tumor cells (assessed by TrypanBlue staining) from vehicle- and compound-treated mice were isolated as described above and 10,000 cells were transplanted subcutaneously into syngeneic mice (n = 20, treated; n = 20, untreated).
Paraformaldehyde fixed tumor fragments were embedded in paraffin, sectioned and stained with H&E. The tumor sections were de-paraffinized and rehydrated in ethanol (100-70% gradient) before immunofluorescent analysis. Antigen retrieval was performed in Antigen Unmasking Solution (Vector, Burlingame, California). Slides were blocked with 3% normal goat serum (Dako, Denmark) and incubated with primary antibodies for 2 hours at room temperature (Ki67, 1∶200 [ABCAM, Cambridge, Massachusetts]. Secondary antibodies (Invitrogen) were used at a 1∶200 dilution for 1 hour at room temperature.

primary tumor cells [5] = assay: Sphere forming assay, primary tumor cells; assay type: cell-based, mouse; conditions: for IC50: primary tumor cells; for selectivity (IC50 MMS/IC50 TMS) for primary tumor cells over primary mammary epithelial cells: sphere forming assays
Text: as §2, §3, §4, §5

BTICs in tumors = assay: Secondary transplant of tumor cells harvested from treated mice; assay type: in vivo; conditions: 10,000 cells/mouse from treated mice
Text: The principal objective of our experiments was to learn whether inhibition of Wnt/β-catenin signaling targeted BTICs in tumors. […] We reasoned that if PKF118–310 selectively targeted BTICs in vivo, viable cells isolated from PKF118–310 treated tumor-bearng hosts would engraft and elicit tumor growth less efficiently relative to their vehicle-treated counterparts. To this end, we transplanted tumor cells by injecting them sub-cutaneously (n = 20, PKF118–310-treated; n = 20, vehicle-treated) between the shoulders of syngeneic mice (10,000 cells/mouse) and measured tumor latency in the PKF118–310-treated and vehicle-treated transplant cohorts. […]
Freshly isolated primary tumor (100,000) cells were suspended in 50% Matrigel (BD, Franklin Lakes, New Jersey), 45% phosphate buffered saline pH7.4 (PBS) and 5% fetal bovine serum (FBS) [Invitrogen, Carlsbad, California], and the cells were injected subcutaneously between the shoulders into syngeneic 6–8 week-old female mice (FVB/N strain). Mice were monitored by palpation weekly for the occurrence of tumors. […] Tumor volume was measured twice weekly. […] Viable tumor cells (assessed by TrypanBlue staining) from vehicle- and compound-treated mice were isolated as described above and 10,000 cells were transplanted subcutaneously into syngeneic mice (n = 20, treated; n = 20, untreated).

[6] = system: primary mammary epithelial cells; assay: Sphere forming assay, primary mammary epithelial cells; assay type: cell-based, mouse
Text: as §2
The #3 and #4 mammary glands from virgin female FVB/N mice (6–8 weeks old) and mammary tumors were isolated as described previously, [56]. Mammospheres and tumorspheres were established from the bulk primary mammary epithelial and tumor cell population respectively as described previously. Serial passage of the mammospheres and tumorspheres was accomplished by mechanically dissociated the cells from spheres using titruation and reseeding the dispersed cells into fresh medium. Passage of the spheres was limited to 3–5 serial passages before the cells were harvested and RNA prepared. […]

primary tumor cells [7] = assay: Secondary sphere-forming assay (self-renewal), primary tumor cells; assay type: cell-based, mouse; conditions: 1 µM during 4-day primary sphere assay; secondary spheres in medium lacking inhibitor
Text: (§6) To learn whether the inhibitory compounds affected the self-renewal of sphere-forming cells, we investigated the capacity of cells exposed to the compounds to serially form spheres. In short, dispersed primary mammary epithelial cells and primary tumor cells were exposed to PKF118–310 during a 4-day primary sphere-forming assay. The spheres that formed were counted, the cells dissociated from the spheres and the dispersed cells plated to form secondary spheres in fresh medium lacking the inhibitors.

[8] = system: primary mammary epithelial cells; assay: Secondary sphere-forming assay (self-renewal), primary mammary epithelial cells; assay type: cell-based, mouse; conditions: 1 µM during 4-day primary sphere assay; secondary spheres in medium lacking inhibitor
Text: as §6

[9] = 0.85 mg/kg, qRT-PCR, versus vehicle

Molecule	effect on sphere formation [1]	effect on sphere formation [2]	IC50 (primary tumor cells [5]) [nM]	selectivity (IC50 MMS/IC50 TMS) for primary tumor cells over primary mammary epithelial cells (primary tumor cells [5])	IC50 [1] [nM]	IC50 [2] [nM]	IC50 [6] [nM]	further results
O=C1Nc2cc(Br)ccc2/C1=C1/Nc2ccccc2/C1=N\O [BIO]	stimulated sphere formation	stimulated sphere formation						
Cn1ncnc2c(=O)n(C)c(=O)nc1-2 [PKF118–310]			580	2–3 fold	940	540	1540	tumor latency versus vehicle-treated cells ([3]; cells incubated with 1 µM for 4 days): longer latency; tumor size at endpoint, smaller than vehicle-treated ([3]; cells incubated with 1 µM for 4 days, 5,000 viable cells s.c.): approximately 50%; tumor mass at endpoint ([3]; cells incubated with 1 µM for 4 days, 5,000 viable cells s.c., ∼6 weeks, control 0.49 g): 0.26 g; tumor initiation after transplant ([3]; cells incubated with 2.5 µM for 4 days, 5,000 viable cells s.c., ∼6 weeks): failed to initiate tumor growth in any of the host mice; effect on tumor growth ([4]; 0.85 mg/kg intra-tumoral, 12 days (5 on, 2 off, 5 on)): inhibited tumor growth; tumor regression during treatment ([4]; 0.85 mg/kg, 12 days): did not induce significant tumor regression; abundance of axin2 transcripts in tumors [4, 9]: significantly lower; abundance of cyclin D1 transcripts in tumors [4, 9]: significantly lower; tumor volume after treatment, vehicle larger than treated ([4]; 0.85 mg/kg, t = 12 days): ~3 fold; Ki67-positive cells, fewer than in vehicle tumors ([4]; 0.85 mg/kg, tumor sections): 3–4 fold; cleaved caspase-3 or TUNEL staining (apoptosis) in tumors ([4]; 0.85 mg/kg, tumor sections): did not observe any positive staining; mice remaining tumor free (BTICs in tumors; 12 week follow-up): 85%; mice forming tumor grafts (BTICs in tumors; vehicle 20/20): 3 of 20; reduction of capacity to form secondary spheres relative to vehicle (primary tumor cells [7]): ~10 fold; secondary mammosphere formation relative to vehicle [8]: at the same frequency as the vehicle-treated mammary epithelial cells
PKF115–584			310	6–7 fold	1340	1390	2050	
Dkk1: secreted protein inhibitor of Wnt/β-catenin signaling, from RnDSystems (protein, UniProt O94907 32-266, looked up) Dickkopf-related protein 1: TLNSVLNSNAIKNLPPPLGGAAGHPGSAVSAAPGILYPGGNKYQTIDNYQPYPCAEDEECGTDEYCASPTRGGDAGVQICLACRKRRKRCMRHAMCCPGNYCKNGICVSSDQNHFRGEIEETITESFGNDHSTLDGYSRRTTLSSKMYHTKGQEGSVCLRSSDCASGLCCARHFWSKICKPVLKEGQVCTKHRRKGSHGLEIFQRCYCGEGLSCRIQKDHHQASNSSRLHTCQRH	reduced sphere formation	reduced sphere formation						
Wnt3A: stimulatory ligand of Wnt/β-catenin signaling, from RnDSystems (protein, UniProt P56704 19-352, looked up) Protein Wnt-3a: SYPIWWSLAVGPQYSSLGSQPILCASIPGLVPKQLRFCRNYVEIMPSVAEGIKIGIQECQHQFRGRRWNCTTVHDSLAIFGPVLDKATRESAFVHAIASAGVAFAVTRSCAEGTAAICGCSSRHQGSPGKGWKWGGCSEDIEFGGMVSREFADARENRPDARSAMNRHNNEAGRQAIASHMHLKCKCHGLSGSCEVKTCWWSQPDFRAIGDFLKDKYDSASEMVVEKHRESRGWVETLRPRYTYFKVPTERDLVYYEASPNFCEPNPETGSFGTRDRTCNVSSHGIDGCDLLCCGRGHNARAERRREKCRCVFHWCCYVSCQECTRVYDVHTCK	stimulated sphere formation	stimulated sphere formation						
